Laboratory results as given in patent US20220031668A1, “METHODS OF INHIBITING PROCOLLAGEN-LYSINE, 2-OXOGLUTARATE 5-DIOXYGENASE 2” (University of Kentucky Research Foundation, priority 2020, published 2022).

Test system: MDA-MB-231 cells
Test: 3D culture assay of cancer cell invasion
Type: cell-based, human
Details: for inhibitory activity on breast cancer progression (invasive growth) in 3D culture: 20 μM, 3D culture for 3 days
Procedure: 3D culture assay is an established platform to study cancer cell invasion, and the ability of compounds to attenuate such cell invasion (Zhang 2015). […] The MDA-MB-231 cell line is an epithelial, human breast cancer cell line.
Briefly, to conduct the 3D culture assay, 12-well plates were coated with […], matrigel per well. After incubating the plates at 37° C. for 15 minutes, MDA-MB-231 cells were plated with about 300 cells per well. The plates were allowed to stand for 45 min in the 37° C. incubator to let the cells deposit into the matrigel. The cells were then covered with 10% matrigel, which contained test compounds. […]

Row | Compound | invasive growth of MDA-MB-231 cells in 3D culture (10 μM) | inhibitory activity on breast cancer progression (invasive growth) in 3D culture
1 | CN(C)C(=O)C(CCN1CCC(O)(c2ccc(Cl)cc2)CC1)(c1ccccc1)c1ccccc1 [Loperamide] | inhibits invasive growth | 
2 | C[N+](C)(C)CC(O)CC(=O)O (racemic) [DL-Carnitine] |  | inhibitory activity
3 | CN1CCCC(n2nc(Cc3ccc(Cl)cc3)c3ccccc3c2=O)CC1 (stereo not drawn) [Azelastine] |  | inhibitory activity
4 | O=C(O)c1cc(O)c(O)c(O)c1 [Gallic acid] |  | inhibitory activity
5 | N=C(N)NC(=O)c1nc(Cl)c(N)nc1N [Amiloride] |  | inhibitory activity
6 | C[N+](C)(C)C[C@H](O)CC(=O)[O-] [L-Carnitine] |  | inhibitory activity
